In ChEMBL document CHEMBL1201862, “PubChem BioAssay data set” (2004):
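Test compounds were applied to cells in 96-well plates for 48 hours at 5 doses. GI50: concentration for 50% inhibition of growth.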 The source made the active and inactive calls. Cut-off read from the data, not from the text of the source: active = GI50 up to about 1.1 µM and inactive = higher.

Columns and labels:
Assay in all cases: DTP human tumour cell line panel, 48 h
[1] = system: SNB-75
[2] = system: HOP-62
[3] = system: XF498
[4] = system: HOP-92
[5] = system: SF-295
[6] = system: SK-OV-3
[7] = system: DLD-1
[8] = system: OVCAR-8
[9] = system: DMS-114
[10] = system: SK-MEL-2
[11] = system: DMS-273
[12] = system: UO-31
[13] = system: HCT-116
[14] = system: HOP-18
[15] = system: SF-539
[16] = system: HCT-15
[17] = system: EKVX
[18] = system: IGROV-1
[19] = system: M14
[20] = system: SNB-78
[21] = system: SK-MEL-5
[22] = system: UACC-257
[23] = system: HCC 2998
[24] = system: A549
[25] = system: 786-0
[26] = system: SK-MEL-28
[27] = system: HL-60
[28] = system: KM12
[29] = system: HT-29
[30] = system: Malme-3M
[31] = system: TK-10
[32] = system: ACHN
[33] = system: K562
[34] = system: NCI-H522
[35] = system: OVCAR-4
[36] = system: CCRF-CEM
[37] = system: M19-MEL
[38] = system: NCI-H460
[39] = system: U-251
[40] = system: SF-268
[41] = system: NCI-H23
[42] = system: LXFL 529
[43] = system: MOLT-4
[44] = system: OVCAR-3
[45] = system: SN12C
[46] = system: COLO 205
[47] = system: OVCAR-5
[48] = system: NCI-H226
[49] = system: RPMI-8226
[50] = system: A498
[51] = system: KM-20L2
[52] = system: SR
[53] = system: SW-620
[54] = system: CAKI-1
[55] = system: UACC-62
[56] = system: LOX IMVI
[57] = system: SNB-19

Compound: CCn1c2ccccc2c2ccc3c(c21)C(=O)C=CC3=O
- GI50 [1]: 29.6 µM (inactive)
- GI50 [2]: 7.52 µM (inactive)
- GI50 [3]: 3.84 µM (inactive)
- GI50 [4]: 12.2 µM (inactive)
- GI50 [5]: 20.4 µM (inactive)
- GI50 [6]: 18.6 µM (inactive)
- GI50 [7]: 3.85 µM (inactive)
- GI50 [8]: 13.7 µM (inactive)
- GI50 [9]: 6.65 µM (inactive)
- GI50 [10]: 21.1 µM (inactive)
- GI50 [11]: 17.2 µM (inactive)
- GI50 [12]: 10 µM (inactive)
- GI50 [13]: 4.47 µM (inactive)
- GI50 [14]: 11 µM (inactive)
- GI50 [15]: 26.2 µM (inactive)
- GI50 [16]: 10.4 µM
- GI50 [17]: 12.1 µM (inactive)
- GI50 [18]: 1.39 µM (inactive)
- GI50 [19]: 3.93 µM (inactive)
- GI50 [20]: 22 µM (inactive)
- GI50 [21]: < 0.01 µM (active)
- GI50 [22]: 14.6 µM (inactive)
- GI50 [23]: 20.9 µM (inactive)
- GI50 [24]: 43.6 µM (inactive)
- GI50 [25]: 1.89 µM (inactive)
- GI50 [26]: 18.3 µM (inactive)
- GI50 [27]: 2.43 µM (inactive)
- GI50 [28]: 14.4 µM (inactive)
- GI50 [29]: 21 µM (inactive)
- GI50 [30]: 9.86 µM (inactive)
- GI50 [31]: 16.4 µM (inactive)
- GI50 [32]: 16.5 µM (inactive)
- GI50 [33]: 2.29 µM (inactive)
- GI50 [34]: 2.58 µM (inactive)
- GI50 [35]: 4.06 µM (inactive)
- GI50 [36]: 0.375 µM (active)
- GI50 [37]: 10.7 µM (inactive)
- GI50 [38]: 20.2 µM (inactive)
- GI50 [39]: 15.9 µM (inactive)
- GI50 [40]: 19.9 µM (inactive)
- GI50 [41]: 22.5 µM (inactive)
- GI50 [42]: 1.93 µM (inactive)
- GI50 [43]: 2.07 µM (inactive)
- GI50 [44]: 13.5 µM (inactive)
- GI50 [45]: 18.2 µM (inactive)
- GI50 [46]: 9.55 µM (inactive)
- GI50 [47]: 21.5 µM (inactive)
- GI50 [48]: 18 µM (inactive)
- GI50 [49]: 10.3 µM (inactive)

Compound: CCOC(=O)C1=C(C)N(NC(=O)OC)C2(N)N(NC(=O)OC)C(C)=C(C(=O)OCC)C12C#N (centres undefined)
- GI50 [1]: > 100 µM (inactive)
- GI50 [2]: > 100 µM (inactive)
- GI50 [50]: > 100 µM (inactive)
- GI50 [3]: > 100 µM (inactive)
- GI50 [51]: > 100 µM (inactive)
- GI50 [5]: > 100 µM (inactive)
- GI50 [6]: > 100 µM (inactive)
- GI50 [52]: > 100 µM (inactive)
- GI50 [7]: > 100 µM (inactive)
- GI50 [8]: > 100 µM (inactive)
- GI50 [53]: > 100 µM (inactive)
- GI50 [9]: > 100 µM (inactive)
- GI50 [10]: > 100 µM (inactive)
- GI50 [11]: > 100 µM (inactive)
- GI50 [12]: > 100 µM (inactive)
- GI50 [13]: > 100 µM (inactive)
- GI50 [15]: > 100 µM (inactive)
- GI50 [16]: > 100 µM
- GI50 [17]: > 100 µM (inactive)
- GI50 [18]: > 100 µM (inactive)
- GI50 [19]: > 100 µM (inactive)
- GI50 [21]: > 100 µM (inactive)
- GI50 [22]: > 100 µM (inactive)
- GI50 [23]: > 100 µM (inactive)
- GI50 [24]: > 100 µM (inactive)
- GI50 [25]: > 100 µM (inactive)
- GI50 [26]: > 100 µM (inactive)
- GI50 [27]: > 100 µM (inactive)
- GI50 [28]: > 100 µM (inactive)
- GI50 [29]: > 100 µM (inactive)
- GI50 [30]: > 100 µM (inactive)
- GI50 [54]: > 100 µM (inactive)
- GI50 [55]: > 100 µM (inactive)
- GI50 [56]: > 100 µM (inactive)
- GI50 [32]: > 100 µM (inactive)
- GI50 [33]: > 100 µM (inactive)
- GI50 [34]: > 100 µM (inactive)
- GI50 [35]: > 100 µM (inactive)
- GI50 [37]: > 100 µM (inactive)
- GI50 [38]: > 100 µM (inactive)
- GI50 [39]: > 100 µM (inactive)
- GI50 [40]: > 100 µM (inactive)
- GI50 [42]: > 100 µM (inactive)
- GI50 [43]: > 100 µM (inactive)
- GI50 [44]: > 100 µM (inactive)
- GI50 [45]: > 100 µM (inactive)
- GI50 [57]: > 100 µM (inactive)
- GI50 [47]: > 100 µM (inactive)
- GI50 [48]: > 100 µM (inactive)
- GI50 [49]: > 100 µM (inactive)
